Experimental data published in the NIST ThermoML archive (doi:10.1021/je4005323).
Numbers after ± are expanded uncertainties.

Conditions: Liquid; for speed of sound: Pulse-echo method; for mass density: Vibrating tube method

CCCCC/C=C\C/C=C\CCCCCCCC(=O)OC [methyl (Z,Z)-9,12-octadecadienate]
Conditions | mass density, 343.15 K [kg/m3] | mass density, 353.15 K [kg/m3] | mass density, 363.15 K [kg/m3] | mass density, 373.15 K [kg/m3] | mass density, 383.15 K [kg/m3] | mass density, 393.15 K [kg/m3] | speed of sound, 343.15 K [m/s] | speed of sound, 363.15 K [m/s] | speed of sound, 383.15 K [m/s] | speed of sound, 393.15 K [m/s]
101.3 kPa | – | 841.8 ± 0.6 | 834.7 ± 0.6 | 826.5 ± 0.6 | 819.3 ± 0.6 | 811.9 ± 0.6 | – | 1180.3 ± 2.7 | 1118.2 ± 2.6 | 1088 ± 2.5
10000 kPa | – | 849.3 ± 0.6 | 842.2 ± 0.6 | 835.3 ± 0.6 | 828.2 ± 0.6 | 820.9 ± 0.6 | – | 1237 ± 2.8 | 1178.7 ± 2.7 | 1150.9 ± 2.6
20000 kPa | – | 856.2 ± 0.6 | 849.5 ± 0.6 | 842.9 ± 0.6 | 836.2 ± 0.6 | 829.3 ± 0.6 | – | 1288.6 ± 2.9 | 1233.8 ± 2.8 | 1207.3 ± 2.7
30000 kPa | – | 862.8 ± 0.6 | 856.4 ± 0.6 | 849.9 ± 0.6 | 843.5 ± 0.6 | 837 ± 0.6 | – | 1336.6 ± 3 | 1283.1 ± 2.9 | 1258.5 ± 2.8
40000 kPa | – | 868.9 ± 0.7 | 862.6 ± 0.7 | 856.4 ± 0.7 | 850.2 ± 0.7 | 844.1 ± 0.7 | – | 1381.1 ± 3.1 | 1329 ± 3 | 1304.7 ± 2.9
50000 kPa | – | 874.6 ± 0.7 | 868.4 ± 0.7 | 862.4 ± 0.7 | 856.8 ± 0.7 | 850.5 ± 0.7 | – | 1422.6 ± 3.1 | 1372.3 ± 3 | 1348.4 ± 3
60000 kPa | – | 879.9 ± 0.7 | 873.9 ± 0.7 | 868.3 ± 0.7 | 862.7 ± 0.7 | 856.7 ± 0.7 | – | 1462.6 ± 3.2 | 1413.2 ± 3.1 | 1389.4 ± 3.1
70000 kPa | – | 885.2 ± 0.7 | 879.1 ± 0.7 | 873.9 ± 0.7 | 868.2 ± 0.7 | 862.4 ± 0.8 | – | 1500.2 ± 3.3 | 1452.3 ± 3.2 | 1428.7 ± 3.1
80000 kPa | 895.7 ± 0.7 | 890 ± 0.7 | 884.1 ± 0.7 | 879.3 ± 0.8 | 873.5 ± 0.8 | 867.9 ± 0.8 | 1583.9 ± 3.4 | 1536.1 ± 3.3 | 1489.5 ± 3.2 | 1466.7 ± 3.2
90000 kPa | 900.3 ± 0.7 | 894.7 ± 0.8 | 889 ± 0.8 | 884.3 ± 0.8 | 878.7 ± 0.8 | 873 ± 0.8 | 1616.7 ± 3.5 | 1570.2 ± 3.4 | 1525.2 ± 3.3 | 1503.1 ± 3.3
100000 kPa | 904.7 ± 0.8 | 899.3 ± 0.8 | 893.9 ± 0.8 | 889.1 ± 0.8 | 883.9 ± 0.8 | 878.1 ± 0.8 | 1648.6 ± 5.2 | 1602.5 ± 5 | 1558.2 ± 4.9 | 1537.7 ± 4.8
110000 kPa | – | – | – | – | – | – | 1679 ± 5.2 | 1634 ± 5.1 | 1590.3 ± 5 | 1570 ± 4.9
120000 kPa | – | – | – | – | – | – | 1708.5 ± 5.3 | 1663.9 ± 5.2 | 1621.1 ± 5.1 | 1600.8 ± 5
130000 kPa | – | – | – | – | – | – | 1736.1 ± 5.4 | 1693 ± 5.3 | 1650.8 ± 5.2 | 1630.7 ± 5.1
140000 kPa | – | – | – | – | – | – | 1763.4 ± 5.5 | 1720.3 ± 5.4 | 1679.1 ± 5.2 | 1660.1 ± 5.2
150000 kPa | – | – | – | – | – | – | 1789.7 ± 5.6 | 1747.4 ± 5.4 | 1707.1 ± 5.3 | 1688 ± 5.3
170000 kPa | – | – | – | – | – | – | 1840.9 ± 5.7 | 1799.1 ± 5.6 | 1759.8 ± 5.5 | 1740.7 ± 5.4
190000 kPa | – | – | – | – | – | – | 1889.3 ± 5.8 | 1847.3 ± 5.7 | 1808.6 ± 5.6 | 1790 ± 5.6
210000 kPa | – | – | – | – | – | – | 1935.4 ± 6 | 1894.7 ± 5.9 | 1855.8 ± 5.7 | 1838.1 ± 5.7
